Results on 16 compounds are retold here after ChEMBL document CHEMBL5543080, “5+1-Heterocyclization as preparative approach for carboxy-containing triazolo[1,5-c]quinazolines with anti-inflammatory activity” (2024).

Type in all cases: functional
Assay [1] deals with Rattus norvegicus. The assay can be described thus: Antiinflammatory activity in Wistar rat model of acute aseptic inflammation assessed as inhibition of carrageenan-induced exudative inflammation at 25 mg/kg, IG preadministered with compound for 1 hrs followed by carrageenan administration and measured after 3 hrs by water displacement plethysmometer relative to control. The note with it: po, time 4 hrs.

The subject of assay [2] is Rattus norvegicus. The experiment in a line: Antiinflammatory activity in carrageenan induced Wistar rat model of acute aseptic inflammation assessed as edema paw volume at 25 mg/kg, IG preadministered with compound for 1 hrs followed by carrageenan administration and measured after 3 hrs by water displacement plethysmometer (reference value: 2.23 +/- 0.13 ml). Conditions: time 4 hrs.

The subject of assay [3] is Rattus norvegicus. The experiment in a line: Antiinflammatory activity in carrageenan induced Wistar rat model of acute aseptic inflammation assessed as healthy paw volume at 25 mg/kg, IG preadministered with compound for 1 hrs followed by carrageenan administration and measured after 3 hrs by water displacement plethysmometer (reference value: 1.38 +/- 0.06 ml). Conditions: time 4 hrs.

The test system of assay [4] is Rattus norvegicus. The experiment in a line: Antiinflammatory activity in carrageenan induced Wistar rat model of acute aseptic inflammation assessed as edema paw volume at 25 mg/kg, IG preadministered with compound for 1 hrs followed by carrageenan administration and measured after 3 hrs by water displacement plethysmometer (reference value: 2.48 +/- 0.09 ml). The note with it: time 4 hrs.

The test system of assay [5] is Rattus norvegicus. The assay can be described thus: Antiinflammatory activity in carrageenan induced Wistar rat model of acute aseptic inflammation assessed as healthy paw volume at 25 mg/kg, IG preadministered with compound for 1 hrs followed by carrageenan administration and measured after 3 hrs by water displacement plethysmometer (reference value: 1.20 +/- 0.06 ml). The note with it: time 4 hrs.

For assay [6], the system named is Rattus norvegicus. The experiment in a line: Antiinflammatory activity in Wistar rat model of acute aseptic inflammation assessed as reduction in paw edema by measuring nitrotyrosine level at 25 mg/kg, IG preadministered with compound for 1 hrs followed by carrageenan administration and measured after 3 hrs by ELISA (reference value: 16.45 +/- 3.748 nM/ml). The note with it: time 4 hrs.

Assay [7] deals with Rattus norvegicus. The experiment in a line: Antiinflammatory activity in Wistar rat model of acute aseptic inflammation assessed as reduction in paw edema by measuring eNOS level at 25 mg/kg, IG preadministered with compound for 1 hrs followed by carrageenan administration and measured after 3 hrs by ELISA (reference value: 8.150 +/- 6.576 pg/ml). The note with it: time 4 hrs.

In assay [8] the test system is Rattus norvegicus. The experiment in a line: Antiinflammatory activity in Wistar rat model of acute aseptic inflammation assessed as reduction in paw edema by measuring C-reactive protein level at 25 mg/kg, IG preadministered with compound for 1 hrs followed by carrageenan administration and measured after 3 hrs by ELISA (reference value: 10.64 +/- 1.223 ng/ml). The note with it: time 4 hrs.

For assay [9], the system named is Rattus norvegicus. The experiment in a line: Antiinflammatory activity in Wistar rat model of acute aseptic inflammation assessed as reduction in paw edema by measuring neutrophils level at 25 mg/kg, IG preadministered with compound for 1 hrs followed by carrageenan administration and measured after 3 hrs (reference value: 4.100 +/- 0.424 10^3/ml). Conditions: time 4 hrs.

For assay [10], the system named is Rattus norvegicus. The experiment in a line: Antiinflammatory activity in Wistar rat model of acute aseptic inflammation assessed as reduction in paw edema by measuring IL-1beta level at 25 mg/kg, IG preadministered with compound for 1 hrs followed by carrageenan administration and measured after 3 hrs by ELISA (reference value: 3.250 +/- 0.778 pg/ml). Conditions: time 4 hrs.

In assay [11] the test system is Rattus norvegicus. The experiment in a line: Antiinflammatory activity in Wistar rat model of acute aseptic inflammation assessed as reduction in paw edema by measuring COX-2 level at 25 mg/kg, IG preadministered with compound for 1 hrs followed by carrageenan administration and measured after 3 hrs by ELISA (reference value: 15.00 +/- 4.243 ng/ml). Conditions: time 4 hrs.

Assay [12] deals with Rattus norvegicus. The experiment in a line: Antiinflammatory activity in Wistar rat model of acute aseptic inflammation assessed as increase in eNOS level at 25 mg/kg, IG preadministered with compound for 1 hrs followed by carrageenan administration and measured after 3 hrs by ELISA relative to control. Conditions: time 4 hrs.
Assay [13] deals with Rattus norvegicus. The experiment in a line: Antiinflammatory activity in Wistar rat model of acute aseptic inflammation assessed as decrease in nitrotyrosine level at 25 mg/kg, IG preadministered with compound for 1 hrs followed by carrageenan administration and measured after 3 hrs by ELISA relative to control. The arrangement: scale not given: the % may be the effect or the level left. The note with it: time 4 hrs.

With `CCOC(=O)c1ccc(-c2nc3n(n2)C2(C(=O)O)CCC(=O)N2c2ccccc2-3)cc1` (stereo not drawn), the inhibition in vivo at 25 mg/kg with Rattus norvegicus [1] turned out to be 5.75%. The Activity amounted to 2.23 mL in the assay on Rattus norvegicus [2] and 1.43 mL in the assay on Rattus norvegicus [3].

For `O=C1CCC2(C(=O)O)N1c1ccccc1-c1nc(-c3ccccc3)nn12` (stereo not drawn), the inhibition in vivo at 25 mg/kg in the assay on Rattus norvegicus [1] turned out to be 6.22%. Further, the Activity stood at 2.19 mL in the assay with Rattus norvegicus [2] and 1.39 mL with Rattus norvegicus [3].

As for `O=C(O)c1ccc(C2Nc3ccccc3-c3nc(-c4ccccc4)nn32)cc1` (stereo not drawn), the inhibition in vivo at 25 mg/kg in the assay with Rattus norvegicus [1] amounted to 16.1%. Further, the figures for the Activity with Rattus norvegicus [4] and in the assay on Rattus norvegicus [5] were 2.35 mL and 1.28 mL, respectively.

For `CCOC(=O)c1ccc(-c2nc3n(n2)C(c2ccc(C(=O)O)c(O)c2)Nc2ccccc2-3)cc1` (stereo not drawn), in the assay with Rattus norvegicus [1], the inhibition in vivo at 25 mg/kg turned out to be 18.3%. The Activity in the assay with Rattus norvegicus [4] came out at 2.38 mL; with Rattus norvegicus [5] it was 1.39 mL.

As for `CCOC(=O)c1ccc(-c2nc3n(n2)C(c2ccc(C(=O)O)cc2)Nc2ccccc2-3)cc1` (stereo not drawn), the Activity was 11.37 nM/ml in the assay with Rattus norvegicus [6]; 14.43 pg/mL in the assay with Rattus norvegicus [7]; 5.8 ng/mL with Rattus norvegicus [8]; 2.37 mL in the assay on Rattus norvegicus [4]; 2.533 10^3/ml in the assay on Rattus norvegicus [9]; 0.87 pg/mL in the assay with Rattus norvegicus [10]. Also, the results for the Activity in the assay with Rattus norvegicus [11] and in the assay with Rattus norvegicus [5] were 4.367 ng/mL and 1.38 mL, respectively. Besides, in the assay on Rattus norvegicus [1], the inhibition in vivo at 25 mg/kg worked out at 21.9%.

With `CCOC(=O)CC1(C)Nc2ccccc2-c2nc(-c3ccc(OC)cc3)nn21` (stereo not drawn), in the assay with Rattus norvegicus [1], the inhibition in vivo at 25 mg/kg is 7.27%. Besides, the Activity in the assay with Rattus norvegicus [2] turned out to be 2.12 mL; in the assay on Rattus norvegicus [3], 1.33 mL.

Turning to `CCOC(=O)c1nc2n(n1)C1(CCC(=O)O)CCC(=O)N1c1ccccc1-2` (stereo not drawn), the inhibition in vivo at 25 mg/kg with Rattus norvegicus [1] was determined as 12.2%. For the same compound, the Activity in the assay with Rattus norvegicus [2] is 2.03 mL; with Rattus norvegicus [3], 1.28 mL.

With `O=C(O)C1Nc2ccccc2-c2nc(-c3ccccc3)nn21` (stereo not drawn), the inhibition in vivo at 25 mg/kg in the assay on Rattus norvegicus [1] stood at 12.2%. Further, the Activity worked out at 2.03 mL in the assay with Rattus norvegicus [2] and 1.28 mL in the assay on Rattus norvegicus [3].

In the case of `CCOC(=O)c1nc2n(n1)C(c1ccc(C(=O)O)cc1)Nc1ccccc1-2` (stereo not drawn), the Activity was 5.367 nM/ml in the assay with Rattus norvegicus [6]; 39.9 pg/mL in the assay with Rattus norvegicus [7]; 2.48 ng/mL in the assay with Rattus norvegicus [8]; 2.05 mL in the assay on Rattus norvegicus [4]; 1.667 10^3/ml with Rattus norvegicus [9]; 0.253 pg/mL in the assay with Rattus norvegicus [10]. Moreover, the Activity in the assay on Rattus norvegicus [11] was found to be 3.033 ng/mL; in the assay on Rattus norvegicus [5] it was 1.45 mL. In the assay with Rattus norvegicus [1], the inhibition in vivo at 25 mg/kg was determined as 52.7%.

On to `O=C(O)CCC12CCC(=O)N1c1ccccc1-c1nc(-c3ccccc3)nn12` (stereo not drawn), for which, in the assay with Rattus norvegicus [1], the inhibition in vivo at 25 mg/kg worked out at 0.94%. Further, the Activity in the assay with Rattus norvegicus [2] is 2.25 mL; with Rattus norvegicus [3] it was 1.41 mL.

As for `CCOC(=O)C1(C)Nc2ccccc2-c2nc(-c3ccccc3)nn21` (stereo not drawn), the inhibition in vivo at 25 mg/kg in the assay on Rattus norvegicus [1] is 24.3%. For the same compound, the Activity in the assay on Rattus norvegicus [2] came to 2.03 mL; in the assay on Rattus norvegicus [3], 1.39 mL.

As for `O=C1c2ccccc2C2N1c1ccccc1-c1nc(-c3ccccc3)nn12` (stereo not drawn), in the assay on Rattus norvegicus [1], the inhibition in vivo at 25 mg/kg was 12.5%. The Activity in the assay with Rattus norvegicus [2] was 1.99 mL; with Rattus norvegicus [3], 1.25 mL.

`CCOC(=O)c1ccc(-c2nc3n(n2)C(c2cccc(C(=O)O)c2)Nc2ccccc2-3)cc1` (stereo not drawn): the Activity with Rattus norvegicus [6] was 6.433 nM/ml; with Rattus norvegicus [7] it was 28.03 pg/mL; with Rattus norvegicus [8], 4.233 ng/mL; in the assay on Rattus norvegicus [4], 2.24 mL; with Rattus norvegicus [9], 2.4 10^3/ml; in the assay on Rattus norvegicus [10], 0.613 pg/mL. The Activity in the assay on Rattus norvegicus [11] came out at 3.8 ng/mL; in the assay with Rattus norvegicus [5], 1.36 mL. For the same compound, the inhibition in vivo at 25 mg/kg with Rattus norvegicus [1] is 31%.

As for `O=C(O)c1cc(C2Nc3ccccc3-c3nc(-c4ccccc4)nn32)ccc1O` (stereo not drawn), the Activity in the assay on Rattus norvegicus [6] was 10.67 nM/ml; in the assay on Rattus norvegicus [7], 25.97 pg/mL; with Rattus norvegicus [8], 5.267 ng/mL; with Rattus norvegicus [4], 2.13 mL; with Rattus norvegicus [12] it was 77.06%; in the assay with Rattus norvegicus [13], 30.88%. For the same compound, the Activity is 2.433 10^3/ml in the assay with Rattus norvegicus [9], 0.427 pg/mL in the assay on Rattus norvegicus [10], 11.27 ng/mL in the assay with Rattus norvegicus [11] and 1.28 mL with Rattus norvegicus [5]. In addition, the inhibition in vivo at 25 mg/kg in the assay with Rattus norvegicus [1] was 33.1%.

`CCOC(=O)c1nc2n(n1)C(c1ccc(O)c(C(=O)O)c1)Nc1ccccc1-2` (stereo not drawn): the Activity is 5.6 nM/ml in the assay on Rattus norvegicus [6]; 35.23 pg/mL in the assay with Rattus norvegicus [7]; 3.183 ng/mL in the assay with Rattus norvegicus [8]; 2.03 mL in the assay on Rattus norvegicus [4]; 2.133 10^3/ml in the assay with Rattus norvegicus [9]; 2.633 pg/mL with Rattus norvegicus [10]. Besides, the results for the Activity with Rattus norvegicus [11] and in the assay with Rattus norvegicus [5] were 3.7 ng/mL and 1.34 mL, respectively. The inhibition in vivo at 25 mg/kg with Rattus norvegicus [1] came out at 45.8%.

For the compound `O=C([O-])Cc1ccccc1Nc1c(Cl)cccc1Cl.[Na+]` [DICLOFENAC SODIUM], the Activity with Rattus norvegicus [6] is 17.6 nM/ml; in the assay on Rattus norvegicus [7], 8.43 pg/mL; with Rattus norvegicus [8], 4.245 ng/mL; in the assay with Rattus norvegicus [2] it was 1.84 mL; in the assay on Rattus norvegicus [12], 18.07%; in the assay on Rattus norvegicus [3] it was 1.55 mL. For the same compound, the Activity is 21.42% in the assay on Rattus norvegicus [13], 2.52 10^3/ml in the assay on Rattus norvegicus [9], 1.27 pg/mL with Rattus norvegicus [10] and 9.785 ng/mL in the assay with Rattus norvegicus [11]. Further, in the assay on Rattus norvegicus [1], the inhibition in vivo at 25 mg/kg is 69.8%.
